Experimental data taken from patent EP1641803B1, “THIENOPYRIMIDINE DERIVATIVES AS POTASSIUM CHANNEL INHIBITORS” (Xention Limited, priority 2003, dated 2004).

Assays:
[1] = target: hKv1.5 (Homo sapiens, UniProt P22460); experiment: Kv1.5 Autopatch Electrophysiology (whole cell patch-clamp); assay type: cell-based; conditions: compound at 1µM, room temperature (22-24°C), held at -80mV, step to 0mV for 1000ms, total charge measured
Outline: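 Whole-cell automated patch-clamp at 22-24°C, compounds tested at 1µM in external bather (KCl/K-gluconate, pH 7.4; KCl/EGTA pipette). Cells held at -80mV and stepped to 0mV for 1000ms every 5s; only cells with IK > 500 pA and Rseries ≤18 MΩ used. Read-out: total charge over the whole step.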

[2] = target: T1, human Kv1.5 (Homo sapiens, UniProt P22460); experiment: Kv1.5 Rb+ Efflux Assay; assay type: cell-based; conditions: inhibition of 86Rb+ efflux through Kv1.5; cells stably transfected with human Kv1.5; 10 point concentration response curves n=2; normalised to 2.5mM 4 amino-pyridine block
T1 construct: expressed in transfected cells
Outline: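 Cells stably expressing human Kv1.5 loaded with ⁸⁶Rb⁺ ≥3 h, preincubated 10 min at room temperature with compound, then depolarised with high-KCl (145mM) buffer for 10 min; effluxed ⁸⁶Rb⁺ counted by Cerenkov emission (alternatively ⁸⁵Rb⁺ by atomic absorption). Inhibition normalised to 2.5mM 4-aminopyridine block; IC50 from 10-point curves, n=2, variable-slope sigmoidal fit.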

T1 sequence (P22460 whole entry): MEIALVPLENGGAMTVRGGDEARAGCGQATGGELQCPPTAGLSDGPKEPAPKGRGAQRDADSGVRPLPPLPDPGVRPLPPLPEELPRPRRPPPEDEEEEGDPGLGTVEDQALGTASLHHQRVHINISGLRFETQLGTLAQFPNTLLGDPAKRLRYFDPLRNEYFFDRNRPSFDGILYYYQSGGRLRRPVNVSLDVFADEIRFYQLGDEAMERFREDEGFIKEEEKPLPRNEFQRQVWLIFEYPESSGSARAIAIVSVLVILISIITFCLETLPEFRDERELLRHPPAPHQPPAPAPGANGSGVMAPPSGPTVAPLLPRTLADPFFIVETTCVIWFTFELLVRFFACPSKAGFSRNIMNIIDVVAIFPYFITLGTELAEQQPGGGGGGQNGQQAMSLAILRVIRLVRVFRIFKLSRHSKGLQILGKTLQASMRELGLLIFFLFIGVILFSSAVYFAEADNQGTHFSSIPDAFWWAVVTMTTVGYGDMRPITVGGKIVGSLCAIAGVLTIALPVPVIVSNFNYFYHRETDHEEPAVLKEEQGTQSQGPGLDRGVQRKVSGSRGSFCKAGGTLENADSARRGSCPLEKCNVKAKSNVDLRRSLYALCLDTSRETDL
hKv1.5, sequence (P22460 whole entry): as above

SMILES | inhibition at 1 µM [1] [%] | IC50 [2] [µM]
c1ccc(-c2csc3nc(NCc4ccco4)nc(NCc4ccco4)c23)cc1 [Example 193, N,N'-Bis(2-furylmethyl)-5-phenylthieno[2,3-d]pyrimidine-2,4-diamine] | 89.2 | 2.5
c1ccc(COc2nc(NCc3ccco3)c3c(-c4ccccc4)csc3n2)cc1 [Example 195, (2-Benzyloxy-5-phenyl-thieno[2,3-d]pyrimidin-4-yl)-furan-2-ylmethyl-amine] | 90 | 6.39
CN(C)c1nc(NCc2ccccn2)c2c(-c3ccc(F)cc3)csc2n1 [Example 200, 5-(4-Fluorophenyl)-N^2,N^2-dimethyl-N^4-pyridin-2-ylmethyl-thieno[2,3-d]pyrimidine-2,4-diamine] | 99.3 | 71.8
COC(=O)C1CCN(c2nc(NCc3ccccn3)c3c(-c4ccc(F)cc4)csc3n2)CC1 [Example 201, 1-{5-(4-Fluorophenyl)-4-[(pyridin-2-ylmethyl)-amino]-thieno[2,3-d]pyrimidin-2-yl}-piperidine-4-carboxylic acid methyl ester] | 98.2 | 15.9
CCOC(=O)CCNc1nc(NCc2ccccn2)c2c(-c3ccccc3)csc2n1 [Example 202, 3-{5-Phenyl-4-[(pyridin-2-ylmethyl)-amino]-thieno[2,3-d]pyrimidin-2-ylamino}-propionic acid ethyl ester] | 98 | 2.7
CNc1nc(NCc2ccccn2)c2c(-c3ccc(F)cc3)csc2n1 [Example 204, 5-(4-Fluorophenyl)-N^2-methyl-N^4-pyridin-2-ylmethyl-thieno[2,3-d]pyrimidine-2,4-diamine] | 97.9 | 4.7
Nc1nc(NCc2ccccn2)c2c(-c3ccc(F)cc3)csc2n1 [Example 205, 5-(4-Fluorophenyl)-N^4-pyridin-2-ylmethyl-thieno[2,3-d]pyrimidine-2,4-diamine] | 97.5 | 11.9
COCCNc1nc(NCc2ccccn2)c2c(-c3ccc(F)cc3)csc2n1 [Example 209, 5-(4-Fluorophenyl)-N^2-(2-methoxy-ethyl)-N^4-pyridin-2-ylmethyl-thieno[2,3-d]pyrimidine-2,4-diamine] | 96 | 1.83
OCCNc1nc(NCc2ccccn2)c2c(-c3ccc(F)cc3)csc2n1 [Example 212, 2-{5-(4-Fluorophenyl)-4-[(pyridin-2-ylmethyl)-amino]-thieno[2,3-d]pyrimidin-2-ylamino}-ethanol] | 87 | 7.63
CCOC(=O)Cc1nc(NCc2ccco2)c2c(-c3ccccc3)csc2n1 [Example 238, {4-[(Furan-2-ylmethyl)-amino]-5-phenyl-thieno[2,3-d]pyrimidin-2-yl}-acetic acid ethyl ester] | 96 | 3.33
OCCc1nc(NCc2ccco2)c2c(-c3ccccc3)csc2n1 [Example 251, 2-{4-[(Furan-2-ylmethyl)-amino]-5-phenyl-thieno[2,3-d]pyrimidin-2-yl}-ethanol] | 98 | 0.08
FC(F)(F)c1ccc(-c2csc3ncnc(NCc4ccccn4)c23)cc1 [Example 313, Pyridin-2-ylmethyl-[5-(4-trifluoromethyl-phenyl)-thieno[2,3-d]pyrimidin-4-yl]-amine] | 98.3 | 2.9
c1ccc(CNc2ncnc3scc(-c4ccc5c(c4)OCO5)c23)nc1 [Example 314, (5-Benzo[1,3]dioxol-5-yl-thieno[2,3-d]pyrimidin-4-yl)-pyridin-2-ylmethyl-amine] | 97.3 | 0.01
c1ccc(CNc2ncnc3scc(-c4ccc5c(c4)OCCO5)c23)nc1 [Example 320, [5-(2,3-Dihydro-benzo[1,4]dioxin-6-yl)-thieno[2,3-d]pyrimidin-4-yl]-pyridin-2-ylmethyl-amine] | 97 | 0.37
Clc1cccc(-c2csc3ncnc(NCc4ccccn4)c23)c1 [Example 321, [5-(3-Chlorophenyl)-thieno[2,3-d]pyrimidin-4-yl]-pyridin-2-ylmethyl-amine] | 95 | 1.52
COc1cccc(-c2csc3ncnc(NCc4ccccn4)c23)c1 [Example 322, [5-(3-Methoxyphenyl)-thieno[2,3-d]pyrimidin-4-yl]-pyridin-2-ylmethyl-amine] | 94 | 0.26
c1ccc(CNc2ncnc3scc(-c4ccc5cc[nH]c5c4)c23)nc1 [Example 323, [5-(1H-Indol-6-yl)-thieno[2,3-d]pyrimidin-4-yl]-pyridin-2-ylmethyl-amine] | 94 | 0.04
Clc1ccc(-c2csc3ncnc(NCc4ccccn4)c23)cc1 [Example 325, [5-(4-Chlorophenyl)-thieno[2,3-d]pyrimidin-4-yl]-pyridin-2-ylmethyl-amine] | 90.8 | 2.54
FC1(F)Oc2ccc(-c3csc4ncnc(NCc5ccccn5)c34)cc2O1 [Example 326, [5-(2,2-Difluoro-benzo[1,3]dioxol-5-yl)-thieno[2,3-d]pyrimidin-4-yl]-pyridin-2-ylmethyl-amine] | 89 | 10.4
Fc1cccc(-c2csc3ncnc(NCc4ccccn4)c23)c1 [Example 331, [5-(3-Fluorophenyl)-thieno[2,3-d]pyrimidin-4-yl]-pyridin-2-ylmethyl-amine] | 76 | 0.03
Fc1ccc(-c2csc3ncnc(NCc4ccccn4)c23)cc1F [Example 333, [5-(3,4-Difluoro-phenyl)-thieno[2,3-d]pyrimidin-4-yl]-pyridin-2-ylmethyl-amine] | 63 | 10.4

Further lines, results first:

inhibition at 1 µM [1] [%] | IC50 [2] [µM] | SMILES
97 | 0.04 | CNc1nc(NCc2ccccn2)c2c(-c3ccccc3)csc2n1 [Example 196, N^2-methyl-5-phenyl-N^4-(pyridin-2-ylmethyl)thieno[2,3-d]pyrimidine-2,4-diamine]
98 | 0.15 | c1ccc(-c2csc3nc(N4CCOCC4)nc(NCc4ccccn4)c23)cc1 [Example 197, (2-Morpholin-4-yl-5-phenyl-thieno[2,3-d]pyrimidin-4-yl)-pyridin-2-ylmethyl-amine]
99.5 | 6.61 | N#Cc1nc(NCc2ccccn2)c2c(-c3ccccc3)csc2n1 [Example 199, 5-Phenyl-4-[(pyridin-2-ylmethyl)-amino]-thieno[2,3-d]pyrimidine-2-carbonitrile]
98 | 0.48 | COCCOc1nc(NCc2ccccn2)c2c(-c3ccccc3)csc2n1 [Example 203, [2-(2-Methoxy-ethoxy)-5-phenyl-thieno[2,3-d]pyrimidin-4-yl]-pyridin-2-ylmethyl-amine]
97.5 | 3.41 | OCCC1CCN(c2nc(NCc3ccccn3)c3c(-c4ccccc4)csc3n2)CC1 [Example 206, 2-(1-{5-Phenyl-4-[(pyridin-2-ylmethyl)-amino]-thieno[2,3-d]pyrimidin-2-yl}-piperidin-4-yl)-ethanol]
97.2 | 42.5 | Fc1ccc(-c2csc3nc(N4CCOCC4)nc(NCc4ccccn4)c23)cc1 [Example 207, [5-(4-Fluorophenyl)-2-morpholin-4-yl-thieno[2,3-d]pyrimidin-4-yl]-pyridin-2-ylmethyl-amine]
96.6 | 0.33 | OCCN(CCO)c1nc(NCc2ccccn2)c2c(-c3ccccc3)csc2n1 [Example 208, 2-((2-Hydroxy-ethyl)-{5-phenyl-4-[(pyridin-2-ylmethyl)-amino]-thieno[2,3-d]pyrimidin-2-yl}-amino)-ethanol]
95.6 | 0.74 | OCC(CO)Nc1nc(NCc2ccccn2)c2c(-c3ccccc3)csc2n1 [Example 210, 2-{5-Phenyl-4-[(pyridin-2-ylmethyl)-amino]-thieno[2,3-d]pyrimidin-2-ylamino}-propane-1,3-diol]
89 | 5.37 | CN(C)CCOc1nc(NCc2ccccn2)c2c(-c3ccccc3)csc2n1 [Example 211, [2-(2-Dimethylamino-ethoxy)-5-phenyl-thieno[2,3-d]pyrimidin-4-yl]-pyridin-2-ylmethyl-amine]
95 | 0.54 | CCOC(=O)Cc1nc(NCc2ccccn2)c2c(-c3ccccc3)csc2n1 [Example 237, {5-Phenyl-4-[(pyridin-2-ylmethyl)amino]thieno[2,3-d]pyrimidin-2-yl} acetic acid ethyl ester]
98 | 0.33 | OCCc1nc(NCc2ccccn2)c2c(-c3ccccc3)csc2n1 [Example 250, 2-{5-Phenyl-4-[(pyridin-2-ylmethyl)amino]thieno[2,3-d]pyrimidin-2-yl}ethanol]
93 | 1.53 | OCC(CO)c1nc(NCc2ccccn2)c2c(-c3ccccc3)csc2n1 [Example 275, 2-{5-Phenyl-4-[(pyridin-2-ylmethyl)-amino]-thieno[2,3-d]pyrimidin-2-yl}-propane-1,3-diol]
73 | 47.4 | c1ccc(CNc2ncnc3scc(-c4ccc(N5CCOCC5)cc4)c23)nc1 [Example 332, [5-(4-Morpholin-4-yl-phenyl)-thieno[2,3-d]pyrimidin-4-yl]-pyridin-2-ylmethyl-amine]
